In patent US20210188856A1, “CRYSTAL FORM OF HYDROCHLORIDE OF PYRAZOLOHETEROARYL DERIVATIVE AND PREPARATION METHOD” (JIANGSU HENGRUI MEDICINE CO., LTD., priority 2018, published 2021):

Experiments:
[1] = tested on: peripheral blood mononuclear cells (PBMC); test: Stimulation of IFN-α secretion from PBMC; type: cell-based, human; details: 24 hours, lowest concentration giving cytokine level at least 3 times the minimum detection limit
Method: The ability of the compound of the present disclosure to stimulate the secretion of IFN-α from PBMC was determined by the following experimental method:
The compound was diluted with pure DMSO to a maximum concentration of 5 mM, and a total of 9 points were obtained by a 4-fold gradient dilution. 4 μL of the compound was then added to 196 μL of RMPI 1640 medium containing 10% FBS and mixed well. 50 μL of the mixture was taken from each well and added to a new 96-well cell culture plate.
All reagents were equilibrated to room temperature. 60 mL of blood and PBS+2% FBS were added to a 250 mL culture flask, gently pipetted, mixed well and diluted. 15 mL of lymphocyte separation solution Ficoll-Paque PREMIUM and then 30 mL of diluted blood were added to a 50 mL PBMC centrifuge tube SepMate™-50. The mixture was centrifuged at 1200 g for 10 minutes at room temperature. The supernatant was taken and then centrifuged at 300 g for 8 minutes. The cells were re-suspended in the RMPI 1640 medium containing 10% FBS and counted, and the number of PBMCs was adjusted to 3.33×10^6 cells/mL. 150 μL of the cell solution was added to the plate added with the compound, and incubated in an incubator at 37° C., 5.0% CO2 for 24 hours.
The cell culture plate was placed in a centrifuge, and centrifuged at 1200 rpm for 10 minutes at room temperature. […]
The plate was read with PHERAStar in the HTRF mode. […]

[2] = target: T1, human TLR7 (Homo sapiens, UniProt Q9NYK1); test: Agonistic effect on human TLR7 (HEK-Blue hTLR7 cells); type: cell-based
T1 construct: host or cells: HEK-Blue hTLR7 (HEK293-derived) stably transfected cells
T1 sequence (Q9NYK1 27-1049): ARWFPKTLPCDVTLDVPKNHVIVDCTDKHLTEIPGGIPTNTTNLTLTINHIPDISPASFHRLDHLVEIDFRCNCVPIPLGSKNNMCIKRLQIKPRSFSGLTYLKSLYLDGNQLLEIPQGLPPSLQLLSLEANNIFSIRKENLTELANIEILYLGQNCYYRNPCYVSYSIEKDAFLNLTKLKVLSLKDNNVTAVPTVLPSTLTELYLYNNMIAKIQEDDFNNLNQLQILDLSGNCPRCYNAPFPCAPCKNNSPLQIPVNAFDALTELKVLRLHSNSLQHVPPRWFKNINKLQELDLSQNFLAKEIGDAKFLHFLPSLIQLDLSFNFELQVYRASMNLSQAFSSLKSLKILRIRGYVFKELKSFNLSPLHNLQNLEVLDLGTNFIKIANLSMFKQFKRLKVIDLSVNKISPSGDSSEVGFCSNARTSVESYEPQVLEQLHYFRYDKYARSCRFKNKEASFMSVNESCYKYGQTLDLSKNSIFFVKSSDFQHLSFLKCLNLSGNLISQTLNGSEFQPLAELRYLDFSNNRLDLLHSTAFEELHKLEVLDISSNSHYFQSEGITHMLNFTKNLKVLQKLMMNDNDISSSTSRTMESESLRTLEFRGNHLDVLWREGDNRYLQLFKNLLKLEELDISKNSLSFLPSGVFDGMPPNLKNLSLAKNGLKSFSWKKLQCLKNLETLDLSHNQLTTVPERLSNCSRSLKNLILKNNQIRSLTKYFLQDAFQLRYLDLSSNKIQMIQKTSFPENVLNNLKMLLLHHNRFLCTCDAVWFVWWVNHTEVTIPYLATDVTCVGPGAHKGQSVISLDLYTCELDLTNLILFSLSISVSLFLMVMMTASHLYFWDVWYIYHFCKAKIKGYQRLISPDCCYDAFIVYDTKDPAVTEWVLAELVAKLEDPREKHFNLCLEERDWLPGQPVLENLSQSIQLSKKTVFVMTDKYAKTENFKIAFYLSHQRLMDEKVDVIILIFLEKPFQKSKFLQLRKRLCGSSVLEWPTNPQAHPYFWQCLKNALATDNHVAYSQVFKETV
Method: The agonistic effect of the compound represented by formula (I) on the hTLR7 protein expressed in HEK-Blue™ hTLR7 stably transfected cells was determined by the following experimental method:
A bag of HEK-Blue detection dry powder was dissolved in 50 mL of water free of endotoxin, and the solution was then placed in an incubator at 37° C. for 10 minutes followed by sterile filtration to prepare a HEK-Blue detection medium. The compound was firstly formulated into a 20 mM stock solution, then diluted with pure DMSO to a maximum concentration of 6×10^6 nM, and a total of 10 points were obtained by a 3-fold gradient dilution.
The above formulated compound was firstly diluted 20-fold with the medium, then 20 μL of the diluted compound was added to each well. The supernatant was removed from the HEK-Blue™ hTLR7 cells, to which 2-5 mL of pre-warmed PBS was then added. The cells were placed in an incubator for 1-2 minutes, gently pipetted, and counted by trypan blue staining. The cells were re-suspended in the HEK-Blue detection medium, and the concentration was adjusted to 2.2×10^5 cells/mL. […]
The plate was read with a microplate reader at a wavelength of 620 nm. The corresponding OD values were obtained, and the EC50 value of the compound was calculated by Graphpad Prism.

Q: CCCCOc1nc(N)c2cnn(Cc3ccc(CN4CCCC4)cc3)c2n1 [compound represented by formula (I), 6-Butoxy-1-(4-(pyrrolidin-1-ylmethyl)benzyl)-1H-pyrazolo[3,4-d]pyrimidin-4-amine] was tested. Which “MEC (minimal effective concentration), IFN-α secretion from PBMC” value [1] did it give?
A: 6 nM

Q: What about the “agonistic effect on human TLR7 (in words)” value ([2]; HEK-Blue hTLR7 cells) of the same compound?
A: significant agonistic effect

Q: What about the EC50 ([2]; HEK-Blue hTLR7 stably transfected cells) of the same compound?
A: 28 nM
